Reference: patent US20100063466A1, “ABSORBENT ARTICLE” (SCA Hygiene Products AB, priority 2006, published 2010)

Legend:
[1] = Measurement of water activity of salt solutions; format: physicochemical; settings: different concentrations of salt in Elga-H2O; FIG. 8
Description: Water activity is measured as follows. The water activity meter is from Aqua Lab, Model Series 3 TE, […]. (U.S. Pat. No. 5,816,704). A specimen, a solution with different additions of different salts in Elga-H2O or synthetic urine, test liquid 2. was placed in a plastic cup. The quantity is not critical, but it is important that the bottom surface of the plastic cup is covered. The specimen is moved into the test chamber, which is closed, and the measurement commences. When the test value is stable, a green light flashes and the water activity can be read off digitally. The salts that were tested were: NaCl, KCl, NH4Cl, KC2H3O2 (K acetate), Na C2H3O2 (Na acetate).
The water activity was measured in Elga-H2O (USF Elga, distilled water) and synthetic urine, test liquid 2.
The water activity was measured according to method 4, but with different concentrations of salt in Elga-H2O.

E. faecalis = settings: FIG. 4
Excerpt: (§1) Absorbent test specimens were punched out from an absorbent core produced in a test plant. A standard method for mat-forming of a core was used during production of the core in the test plant. The absorbent test specimen included a homogeneous mixture of fluff pulp, 0.72 g Weyerhauser pulp (NB 416) and 0.48 g of superabsorbent polymer (SAP) (Degussa SXM9135). The absorbent core, was compressed to a bulk of around 8-10 cm^3/g. The size of the punched-out test items was 5 cm in diameter, the weight was about 1.2 g.
(§2) 16 ml (corresponding to a maximum absorption capacity of a test specimen according to method 1) of test liquid 1 containing the bacteria were added to a test specimen placed in plastic tubs, and a lid was fitted on the tubs. The tubs were turned upside down and incubated in a warm cabinet at 35° C. After incubation for 0, 6 and 12 hours, the test samples were placed in a plastic bag with peptone water and the content was homogenized (agitated and worked up) in a stomacker for 3 minutes. The homogenate was diluted in dilution tubes with peptone water and a microbiological culture was spread on agar plates. Slanetz Bartley agar was used for E. faecalis, and Drigalski agar for E. coli and P. mirabilis. The specimens were incubated at 35° C. for 1-2 days before the colonies were counted and the log CFU/ml calculated. Control tests were also carried out with absorbent cores without NaCl.
(§3) Bacteria were cultured in nutrient broth and diluted to the desired concentration of about Log 3.3 in test liquid 1 (method 4). Absorbent test specimens were produced according to method 1. 29 (high), 22 (medium) and 12 (low) % by weight NaCl (% dry) were added to the core, corresponding to 3 (high), 2 (medium) and 1 (low) % by weight (% wet) in the wet product. This proportion also applies to the other examples. The bacterial growth was measured according to method 3.

P. mirabilis = settings: FIG. 4
Excerpt: as §1, §2, §3

E. coli = settings: FIG. 4
Excerpt: as §1, §2, §3

Proteus mirabilis = settings: 29% by weight of NaCl (% dry); after 6 and 8 hours; FIG. 5
Excerpt: as §1
(§4) Absorbent test specimens were produced according to method 1.
as §4

[2] = 3% added salt (% wet), NaCl high, after 12 hours, 35° C, test liquid 1
[3] = 29, 22 and 12 % by weight NaCl (% dry), after 6 and 12 hours

| water activity as the concentrations of salt increase [1] | SMILES | growth of E. faecalis (E. faecalis; [2]) | growth of E. faecalis compared with the control tests (E. faecalis; [3]) | growth of P. mirabilis (P. mirabilis; [2]) | growth of P. mirabilis compared with the control tests (P. mirabilis; [3]) | growth of E. coli (E. coli; [2]) | growth of E. coli compared with the control tests (E. coli; [3]) | development of NH3, ranking among specimens (Proteus mirabilis) |
| --- | --- | --- | --- | --- | --- | --- | --- | --- |
| drops | Cl.N [NH4Cl] | – | – | – | – | – | – | – |
| drops | CC(=O)[O-].[Na+] [Na acetate] | – | – | – | – | – | – | – |

| SMILES | water activity as the concentrations of salt increase [1] | growth of E. faecalis (E. faecalis; [2]) | growth of E. faecalis compared with the control tests (E. faecalis; [3]) | growth of P. mirabilis (P. mirabilis; [2]) | growth of P. mirabilis compared with the control tests (P. mirabilis; [3]) | growth of E. coli (E. coli; [2]) | growth of E. coli compared with the control tests (E. coli; [3]) | development of NH3, ranking among specimens (Proteus mirabilis) |
| --- | --- | --- | --- | --- | --- | --- | --- | --- |
| [Cl-].[Na+] [NaCl] | drops | < 5.5 log CFU/ml | lower | < 5.5 log CFU/ml | lower | < 5.5 log CFU/ml | lower | lowest |
